Laboratory results from ChEMBL document CHEMBL1201862, “PubChem BioAssay data set” (2004).
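Method: 48-hour compound exposure of cells in 96-well plates, five concentrations, linear interpolation of endpoints. GI50 is the concentration that inhibits growth by half.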 Calls of active or inactive are those of the source. Cut-off read from the data, not from the text of the source: active = GI50 up to about 1.1 µM and inactive = higher.

Tests used:
Experiment in all cases: NCI anticancer screen, dose series, 48 h
ACHN = system: ACHN
CCRF-CEM = system: CCRF-CEM
HCT-116 = system: HCT-116
HL-60 = system: HL-60
HOP-92 = system: HOP-92
K562 = system: K562
MOLT-4 = system: MOLT-4
NCI-H226 = system: NCI-H226
OVCAR-4 = system: OVCAR-4
RPMI-8226 = system: RPMI-8226
RXF 393 = system: RXF 393
SF-295 = system: SF-295
SF-539 = system: SF-539
SK-MEL-28 = system: SK-MEL-28
SK-MEL-2 = system: SK-MEL-2
SK-MEL-5 = system: SK-MEL-5
SNB-19 = system: SNB-19
SNB-75 = system: SNB-75
UACC-257 = system: UACC-257
UO-31 = system: UO-31

SMILES	GI50 (ACHN)	GI50 (CCRF-CEM)	GI50 (HCT-116)	GI50 (HL-60)	GI50 (HOP-92)	GI50 (K562)	GI50 (MOLT-4)	GI50 (NCI-H226)	GI50 (OVCAR-4)	GI50 (RPMI-8226)	GI50 (RXF 393)	GI50 (SF-295)	GI50 (SF-539)	GI50 (SK-MEL-28)	GI50 (SK-MEL-2)	GI50 (SK-MEL-5)	GI50 (SNB-19)	GI50 (SNB-75)	GI50 (UACC-257)	GI50 (UO-31)
CC1=NN(C(=O)c2ccccc2O)C(=O)/C1=C/c1ccc(O)cc1	0.204 µM (active)	1.47 µM (inactive)	0.209 µM (active)	1.02 µM (active)	0.218 µM (active)	0.0667 µM (active)	0.711 µM (active)	0.475 µM (active)	1.48 µM (inactive)	0.312 µM (active)	0.0601 µM (active)	0.379 µM (active)	0.188 µM (active)	52.2 µM (inactive)	2.13 µM (inactive)	0.301 µM (active)	0.363 µM (active)	0.23 µM (active)	0.658 µM (active)	0.153 µM (active)
C[C@]12CCC(=O)C=C1CC[C@@H]1[C@@H]2[C@@H](O)C[C@@]2(C)[C@H]1CC[C@]2(O)C(=O)COC(=O)C1CCCC1	> 100 µM (inactive)	7.73 µM (inactive)	> 100 µM (inactive)	> 100 µM (inactive)	> 100 µM (inactive)	> 100 µM (inactive)	–	> 100 µM (inactive)	> 100 µM (inactive)	1.63 µM (inactive)	> 100 µM (inactive)	> 100 µM (inactive)	> 100 µM (inactive)	> 100 µM (inactive)	> 100 µM (inactive)	> 100 µM (inactive)	> 100 µM (inactive)	> 100 µM (inactive)	> 100 µM (inactive)	> 100 µM (inactive)
S=c1c2nc[nH]c2ncn1CCSC1=NC=NC2=NC=NC21 (stereo not drawn)	> 100 µM (inactive)	> 82.2 µM (inactive)	> 100 µM (inactive)	> 92 µM (inactive)	> 80 µM (inactive)	30.6 µM (inactive)	70.5 µM (inactive)	> 100 µM (inactive)	> 87.3 µM (inactive)	> 85.5 µM (inactive)	> 100 µM (inactive)	> 100 µM (inactive)	> 84.1 µM (inactive)	> 100 µM (inactive)	> 100 µM (inactive)	> 100 µM (inactive)	> 100 µM (inactive)	> 66.1 µM (inactive)	> 81.3 µM (inactive)	> 100 µM (inactive)
CCOC(=O)/C=C(\C(=O)OCC)n1ccc(=O)n(Cc2cnnn2CCCCOC(C)=O)c1=O	1.83 µM (inactive)	1.99 µM (inactive)	6.21 µM (inactive)	2.79 µM (inactive)	2.57 µM (inactive)	2.37 µM (inactive)	2.49 µM (inactive)	17.6 µM (inactive)	12.3 µM (inactive)	6.68 µM (inactive)	0.697 µM (active)	27.4 µM (inactive)	2.03 µM (inactive)	6 µM (inactive)	14.7 µM (inactive)	13.5 µM (inactive)	1.57 µM (inactive)	14 µM (inactive)	11.3 µM (inactive)	21.7 µM (inactive)
O=c1ccn(C2OC(COC3CCCCO3)C(OC3CCCCO3)C2OC2CCCCO2)c(=O)n1-c1ccccc1 (stereo not drawn)	> 100 µM (inactive)	> 100 µM (inactive)	> 100 µM (inactive)	> 100 µM (inactive)	> 100 µM (inactive)	91.6 µM (inactive)	> 100 µM (inactive)	> 100 µM (inactive)	> 100 µM (inactive)	> 100 µM (inactive)	> 100 µM (inactive)	> 100 µM (inactive)	> 100 µM (inactive)	> 100 µM (inactive)	> 100 µM (inactive)	> 100 µM (inactive)	> 100 µM (inactive)	> 100 µM (inactive)	> 100 µM (inactive)	> 100 µM (inactive)
CCCCNC(=O)OCCN=C1c2ccccc2C(Br)C(Br)c2ccccc21 (stereo not drawn)	24.2 µM (inactive)	10.1 µM (inactive)	23.3 µM (inactive)	9.04 µM (inactive)	4.46 µM (inactive)	29.9 µM (inactive)	24.9 µM (inactive)	76.9 µM (inactive)	23.8 µM (inactive)	22.5 µM (inactive)	14.3 µM (inactive)	87.7 µM (inactive)	29.9 µM (inactive)	35.4 µM (inactive)	42.9 µM (inactive)	18.7 µM (inactive)	24.9 µM (inactive)	30.5 µM (inactive)	26.8 µM (inactive)	–
O=C(NNc1ccc([N+](=O)[O-])cc1)C1OC(CO)C(O)C1O (stereo not drawn)	> 100 µM (inactive)	43.7 µM (inactive)	> 100 µM (inactive)	58.9 µM (inactive)	> 100 µM (inactive)	67 µM (inactive)	> 100 µM (inactive)	> 100 µM (inactive)	> 100 µM (inactive)	30.5 µM (inactive)	> 100 µM (inactive)	> 100 µM (inactive)	> 100 µM (inactive)	> 100 µM (inactive)	> 100 µM (inactive)	> 100 µM (inactive)	> 100 µM (inactive)	> 100 µM (inactive)	> 100 µM (inactive)	> 100 µM (inactive)
